Columns and labels:
[1] = human gut metagenome, 24 h, 2 µM
[2] = The drug is tested on WLS-027 corresponding to human gut metagenome with ENA study accession number: PRJEB37062 and ENA sample accession number: ERS12561744 for biotransformation under anaerobic condition. The drug concentrations were measured over 9 timepoints collected between 0 and 24 hours of incubation by liquid-chromatography-coupled mass spectrometry (LC–MS); settings: 2 µM
[3] = The drug is tested on Z-027 corresponding to metagenome with ENA study accession number: PRJEB37062 and ENA sample accession number: ERS12561826 for biotransformation under anaerobic condition. The drug concentrations were measured over 9 timepoints collected between 0 and 24 hours of incubation by liquid-chromatography-coupled mass spectrometry (LC–MS); settings: 2 µM
[4] = The drug is tested on Z-005 corresponding to metagenome with ENA study accession number: PRJEB37062 and ENA sample accession number: ERS12561805 for biotransformation under anaerobic condition. The drug concentrations were measured over 9 timepoints collected between 0 and 24 hours of incubation by liquid-chromatography-coupled mass spectrometry (LC–MS); settings: 2 µM
[5] = human gut metagenome, 24 h, 2 µM; remark: listed apart in the source
[6] = human gut metagenome, 24 h, 2 µM; remark: listed apart in the source
[7] = human gut metagenome, 24 h, 2 µM; remark: listed apart in the source
[8] = human gut metagenome, 24 h, 2 µM; remark: listed apart in the source
[9] = The drug is tested on Z-008 corresponding to metagenome with ENA study accession number: PRJEB37062 and ENA sample accession number: ERS12561808 for biotransformation under anaerobic condition. The drug concentrations were measured over 9 timepoints collected between 0 and 24 hours of incubation by liquid-chromatography-coupled mass spectrometry (LC–MS); settings: 2 µM
[10] = The drug is tested on Z-001 corresponding to mouse gut metagenome with ENA study accession number: PRJEB37062 and ENA sample accession number: ERS12561801 for biotransformation under anaerobic condition. The drug concentrations were measured over 9 timepoints collected between 0 and 24 hours of incubation by liquid-chromatography-coupled mass spectrometry (LC–MS); settings: 2 µM
[11] = The drug is tested on Z-022 corresponding to mouse gut metagenome with ENA study accession number: PRJEB37062 and ENA sample accession number: ERS12561821 for biotransformation under anaerobic condition. The drug concentrations were measured over 9 timepoints collected between 0 and 24 hours of incubation by liquid-chromatography-coupled mass spectrometry (LC–MS); settings: 2 µM
[12] = human gut metagenome, 24 h, 2 µM; remark: listed apart in the source
[13] = human gut metagenome, 24 h, 2 µM; remark: listed apart in the source
[14] = The drug is tested on Z-020 corresponding to rabbit gut metagenome with ENA study accession number: PRJEB37062 and ENA sample accession number: ERS12561819 for biotransformation under anaerobic condition. The drug concentrations were measured over 9 timepoints collected between 0 and 24 hours of incubation by liquid-chromatography-coupled mass spectrometry (LC–MS); settings: 2 µM
[15] = human gut metagenome, 24 h, 2 µM; remark: listed apart in the source
[16] = The drug is tested on Z-012 corresponding to metagenome with ENA study accession number: PRJEB37062 and ENA sample accession number: ERS12561812 for biotransformation under anaerobic condition. The drug concentrations were measured over 9 timepoints collected between 0 and 24 hours of incubation by liquid-chromatography-coupled mass spectrometry (LC–MS); settings: 2 µM
[17] = human gut metagenome, 24 h, 2 µM; remark: listed apart in the source
[18] = human gut metagenome, 24 h, 2 µM; remark: listed apart in the source
[19] = The drug is tested on WLS-077 corresponding to human gut metagenome with ENA study accession number: PRJEB37062 and ENA sample accession number: ERS12561750 for biotransformation under anaerobic condition. The drug concentrations were measured over 9 timepoints collected between 0 and 24 hours of incubation by liquid-chromatography-coupled mass spectrometry (LC–MS); settings: 2 µM
[20] = The drug is tested on Z-030 corresponding to mouse gut metagenome with ENA study accession number: PRJEB37062 and ENA sample accession number: ERS12561829 for biotransformation under anaerobic condition. The drug concentrations were measured over 9 timepoints collected between 0 and 24 hours of incubation by liquid-chromatography-coupled mass spectrometry (LC–MS); settings: 2 µM
Also: call rule not given here.

SMILES	Bacterial Biotransformation [1]	Bacterial Biotransformation [2]	Bacterial Biotransformation [3]	Bacterial Biotransformation [4]	Bacterial Biotransformation [5]	Bacterial Biotransformation [6]	Bacterial Biotransformation [7]	Bacterial Biotransformation [8]	Bacterial Biotransformation [9]	Bacterial Biotransformation [10]	Bacterial Biotransformation [11]	Bacterial Biotransformation [12]	Bacterial Biotransformation [13]	Bacterial Biotransformation [14]	Bacterial Biotransformation [15]	Bacterial Biotransformation [16]	Bacterial Biotransformation [17]	Bacterial Biotransformation [18]	Bacterial Biotransformation [19]	Bacterial Biotransformation [20]
Cc1ccccc1C(OCCN(C)C)c1ccccc1.O=C(O)CC(O)(CC(=O)O)C(=O)O (stereo not given) [ORPHENADRINE CITRATE]	Compound NOT metabolized	Compound NOT metabolized	Compound NOT metabolized	Compound NOT metabolized	Compound metabolized	Compound NOT metabolized	Compound NOT metabolized	Compound NOT metabolized	Compound NOT metabolized	Compound metabolized	Compound NOT metabolized	Compound NOT metabolized	Compound NOT metabolized	Compound metabolized	Compound metabolized	Compound NOT metabolized	Compound metabolized	Compound NOT metabolized	Compound NOT metabolized	Compound NOT metabolized
CCN(CC)CCOC(=O)C1(C2CCCCC2)CCCCC1 [DICYCLOMINE]	Compound NOT metabolized	Compound metabolized	Compound NOT metabolized	Compound NOT metabolized	Compound NOT metabolized	Compound metabolized	Compound metabolized	Compound NOT metabolized	Compound NOT metabolized	Compound NOT metabolized	Compound metabolized	Compound NOT metabolized	Compound metabolized	Compound NOT metabolized	Compound metabolized	Compound metabolized	Compound NOT metabolized	Compound NOT metabolized	Compound NOT metabolized	Compound NOT metabolized
Nc1nnc(-c2cccc(Cl)c2Cl)c(N)n1 [LAMOTRIGINE]	Compound NOT metabolized	Compound NOT metabolized	Compound NOT metabolized	Compound NOT metabolized	Compound NOT metabolized	Compound NOT metabolized	Compound NOT metabolized	Compound NOT metabolized	Compound NOT metabolized	Compound NOT metabolized	Compound NOT metabolized	Compound metabolized	Compound NOT metabolized	Compound NOT metabolized	Compound metabolized	Compound NOT metabolized	Compound NOT metabolized	Compound NOT metabolized	Compound NOT metabolized	Compound NOT metabolized
OC(c1cc(C(F)(F)F)nc2c(C(F)(F)F)cccc12)C1CCCCN1 (stereo not given) [MEFLOQUINE]	Compound NOT metabolized	Compound metabolized	Compound NOT metabolized	Compound NOT metabolized	Compound metabolized	Compound metabolized	Compound metabolized	Compound NOT metabolized	Compound NOT metabolized	Compound NOT metabolized	Compound metabolized	Compound metabolized	Compound metabolized	Compound metabolized	Compound metabolized	Compound NOT metabolized	Compound NOT metabolized	Compound metabolized	Compound metabolized	Compound NOT metabolized
CC[C@@]1(O)C(=O)OCc2c1cc1n(c2=O)Cc2cc3c(CN(C)C)c(O)ccc3nc2-1 [TOPOTECAN]	Compound NOT metabolized	Compound NOT metabolized	Compound NOT metabolized	Compound NOT metabolized	Compound NOT metabolized	Compound NOT metabolized	Compound NOT metabolized	Compound NOT metabolized	Compound NOT metabolized	Compound NOT metabolized	Compound NOT metabolized	Compound NOT metabolized	Compound NOT metabolized	Compound NOT metabolized	Compound NOT metabolized	Compound NOT metabolized	Compound NOT metabolized	Compound NOT metabolized	Compound NOT metabolized	Compound NOT metabolized
